Laboratory results reported in patent publication US12291518B2, “Thyroid hormone receptor agonists and use thereof” (Eccogene Inc., priority 2020, dated 2025).
One block for each molecule: values may come before it.

Experiments:
THR beta-LBD = target: T1, THR beta-LBD (Homo sapiens, UniProt P10828); experiment: THR-β Coactivator Peptide Recruitment Assay (LanthaScreen TR-FRET); assay type: biochemical; details: TR-FRET coactivator recruitment, THR beta-LBD 0.5 nM; for EC50: read-out: THRβ EC50
T1 construct: THR beta-LBD (the final concentration is 0.5 nM) was added to the 384-well assay plate; purchased Invitrogen PV4686
T1 sequence (P10828 217-461 limits assumed): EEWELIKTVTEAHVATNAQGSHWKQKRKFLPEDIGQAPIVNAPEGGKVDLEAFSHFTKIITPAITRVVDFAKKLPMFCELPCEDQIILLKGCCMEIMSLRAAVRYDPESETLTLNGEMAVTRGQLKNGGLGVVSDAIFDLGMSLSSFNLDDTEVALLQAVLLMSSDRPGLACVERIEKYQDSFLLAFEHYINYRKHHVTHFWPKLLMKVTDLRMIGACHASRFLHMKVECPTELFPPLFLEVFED
Experimental: (§1) A time-resolved FRET (TR-FRET) assay was used to test representative compounds of the application.
(§2) THR-β Coactivator Peptide Recruitment Assay were conducted by using Invitrogen's LanthaScreen™ TR-FRET Thyroid Receptor beta Assay Kit (Catalog no. PV4686). Binding of an agonist to the nuclear receptor causes a subsequent binding of a coactivator peptide, resulting in fluorescence energy transfer from the labelled nuclear receptor to the proximal coactivator peptide, which reflects the binding affinity of the agonist and the nuclear receptor. The assay was conducted by following the manufacturer's instructions. Briefly, THR beta-LBD (the final concentration is 0.5 nM) was added to the 384-well assay plate containing test compounds, followed by addition of Fluorescein-SRC2-2 coactivator peptide and terbium (Tb)-labeled anti-GST antibody. The final concentration of THR beta-LBD, Fluorescein-SRC2-2 coactivator peptide and terbium (Tb)-labeled anti-GST antibody is 0.5 nM, 0.1 nM and 2 nM, respectively. After a gentle mix and incubation at room temperature for 2 h, the signal was read on the EnVision Multilabel Plate Reader at wavelengths of 520 nm and 495 nm. TR-FRET ratio was calculated by dividing the emission signal at 520 nm and the emission signal at 495 nm, and then was plotted against a sigmoidal dose response curve (four parameters, GraphPad™ Prism 8) to determine the EC50 value.

THR alpha-LBD = target: T2, THR alpha-LBD (Homo sapiens, UniProt P10827); experiment: THR-α Coactivator Peptide Recruitment Assay (LanthaScreen TR-FRET); assay type: biochemical; details: TR-FRET coactivator recruitment, THR alpha-LBD 0.25 nM; for EC50: read-out: THRα EC50
T2 construct: except that THR alpha-LBD of a final concentration 0.25 nM was used; purchased Invitrogen PV4687
Experimental: as §1, §2
THR-α Coactivator Peptide Recruitment Assay were conducted by using Invitrogen's LanthaScreen™ TR-FRET Thyroid Receptor alpha Assay Kit (Catalog no. PV4687), following the same method described above except that THR alpha-LBD of a final concentration 0.25 nM was used.

T2 sequence (P10827 163-410 isoform P10827-2 limits assumed, other chains not shown): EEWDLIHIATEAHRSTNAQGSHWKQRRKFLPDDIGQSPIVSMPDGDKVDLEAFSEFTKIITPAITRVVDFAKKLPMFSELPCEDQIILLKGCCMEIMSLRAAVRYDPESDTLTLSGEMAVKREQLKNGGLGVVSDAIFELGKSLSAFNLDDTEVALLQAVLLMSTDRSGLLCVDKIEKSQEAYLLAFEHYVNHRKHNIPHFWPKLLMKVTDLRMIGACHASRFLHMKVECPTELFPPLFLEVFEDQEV

SMILES: O=c1[nH]c(=O)n(-c2cc(Cl)c(Oc3ccc(O)c(S(=O)(=O)NC[C@H]4C[C@@H](O)C4)c3)c(Cl)c2)nc1C(F)F [Compound 44, 5-(2,6-dichloro-4-(6-(difluoromethyl)-3,5-dioxo-4,5-dihydro-1,2,4-triazin-2(3H)-yl)phenoxy)-2-hydroxy-N-(((1s,3s)-3-hydroxycyclobutyl)methyl)benzenesulfonamide]
THRβ Emax (THR beta-LBD): B (75~90) | EC50 (THR beta-LBD): 2 to 20 nM | THRα Emax (THR alpha-LBD): A (85~110) | EC50 (THR alpha-LBD): 2 to 200 nM

SMILES: CS(=O)(=O)N[C@@H]1CCN(S(=O)(=O)c2cc(Oc3c(Cl)cc(-n4nc(C(F)F)c(=O)[nH]c4=O)cc3Cl)ccc2O)C1 [Compound 47, (R)-N-(1-((5-(2,6-dichloro-4-(6-(difluoromethyl)-3,5-dioxo-4,5-dihydro-1,2,4-triazin-2(3H)-yl)phenoxy)-2-hydroxyphenyl)sulfonyl)pyrrolidin-3-yl)methanesulfonamide]
THRβ Emax (THR beta-LBD): C (<75) | EC50 (THR beta-LBD): 2 to 20 nM | THRα Emax (THR alpha-LBD): B (40~85) | EC50 (THR alpha-LBD): 2 to 200 nM

SMILES: O=c1[nH]c(=O)n(-c2cc(Cl)c(Oc3ccc(O)c(S(=O)(=O)N[C@@H]4CCN(S(=O)(=O)C5CC5)C4)c3)c(Cl)c2)nc1C(F)F [Compound 48, (R)-N-(1-(cyclopropylsulfonyl)pyrrolidin-3-yl)-5-(2,6-dichloro-4-(6-(difluoromethyl)-3,5-dioxo-4,5-dihydro-1,2,4-triazin-2(3H)-yl)phenoxy)-2-hydroxybenzenesulfonamide]
THRβ Emax (THR beta-LBD): C (<75) | EC50 (THR beta-LBD): 2 to 20 nM | THRα Emax (THR alpha-LBD): B (40~85) | EC50 (THR alpha-LBD): 200 to 1000 nM

SMILES: O=c1[nH]c(=O)n(-c2cc(Cl)c(Oc3ccc(O)c(S(=O)(=O)N[C@H]4CCN(S(=O)(=O)C5CC5)C4)c3)c(Cl)c2)nc1C(F)F [Compound 49, (S)-N-(1-(cyclopropylsulfonyl)pyrrolidin-3-yl)-5-(2,6-dichloro-4-(6-(difluoromethyl)-3,5-dioxo-4,5-dihydro-1,2,4-triazin-2(3H)-yl)phenoxy)-2-hydroxybenzenesulfonamide]
THRβ Emax (THR beta-LBD): C (<75) | EC50 (THR beta-LBD): 2 to 20 nM | THRα Emax (THR alpha-LBD): C (<40) | EC50 (THR alpha-LBD): 200 to 1000 nM

SMILES: CS(=O)(=O)N1CC[C@H](NS(=O)(=O)c2cc(Oc3c(Cl)cc(-n4nc(C(F)F)c(=O)[nH]c4=O)cc3Cl)ccc2O)C1 [Compound 50, (S)-5-(2,6-dichloro-4-(6-(difluoromethyl)-3,5-dioxo-4,5-dihydro-1,2,4-triazin-2(3H)-yl)phenoxy)-2-hydroxy-N-(1-(methylsulfonyl)pyrrolidin-3-yl)benzenesulfonamide]
THRβ Emax (THR beta-LBD): C (<75) | EC50 (THR beta-LBD): 2 to 20 nM | THRα Emax (THR alpha-LBD): B (40~85) | EC50 (THR alpha-LBD): 200 to 1000 nM

SMILES: CS(=O)(=O)N1CC[C@@H](NS(=O)(=O)c2cc(Oc3c(Cl)cc(-n4nc(C(F)F)c(=O)[nH]c4=O)cc3Cl)ccc2O)C1 [Compound 51, (R)-5-(2,6-dichloro-4-(6-(difluoromethyl)-3,5-dioxo-4,5-dihydro-1,2,4-triazin-2(3H)-yl)phenoxy)-2-hydroxy-N-(1-(methylsulfonyl)pyrrolidin-3-yl)benzenesulfonamide]
THRβ Emax (THR beta-LBD): C (<75) | EC50 (THR beta-LBD): 2 to 20 nM | THRα Emax (THR alpha-LBD): B (40~85) | EC50 (THR alpha-LBD): 200 to 1000 nM

SMILES: O=C(C1CC1)N1CC(NS(=O)(=O)c2cc(Oc3c(Cl)cc(-n4nc(C(F)F)c(=O)[nH]c4=O)cc3Cl)ccc2O)C1 [Compound 52, N-(1-(cyclopropanecarbonyl)azetidin-3-yl)-5-(2,6-dichloro-4-(6-(difluoromethyl)-3,5-dioxo-4,5-dihydro-1,2,4-triazin-2(3H)-yl)phenoxy)-2-hydroxybenzenesulfonamide]
THRβ Emax (THR beta-LBD): B (75~90) | EC50 (THR beta-LBD): 20 to 100 nM | THRα Emax (THR alpha-LBD): B (40~85) | EC50 (THR alpha-LBD): > 1000 nM

SMILES: CN(C)C(=O)N1CC(NS(=O)(=O)c2cc(Oc3c(Cl)cc(-n4nc(C(F)F)c(=O)[nH]c4=O)cc3Cl)ccc2O)C1 [Compound 53, 3-((5-(2,6-dichloro-4-(6-(difluoromethyl)-3,5-dioxo-4,5-dihydro-1,2,4-triazin-2(3H)-yl)phenoxy)-2-hydroxyphenyl)sulfonamido)-N,N-dimethylazetidine-1-carboxamide]
THRβ Emax (THR beta-LBD): B (75~90) | EC50 (THR beta-LBD): 2 to 20 nM | THRα Emax (THR alpha-LBD): B (40~85) | EC50 (THR alpha-LBD): > 1000 nM

Further lines, results first:

THRβ Emax (THR beta-LBD): B (75~90) | EC50 (THR beta-LBD): 2 to 20 nM | THRα Emax (THR alpha-LBD): A (85~110) | EC50 (THR alpha-LBD): 2 to 200 nM
SMILES: CO[C@H]1C[C@@H](NS(=O)(=O)c2cc(Oc3c(Cl)cc(-n4nc(C(F)F)c(=O)[nH]c4=O)cc3Cl)ccc2O)C1 [Compound 37, 5-(2,6-dichloro-4-(6-(difluoromethyl)-3,5-dioxo-4,5-dihydro-1,2,4-triazin-2(3H)-yl)phenoxy)-2-hydroxy-N-((1s,3s)-3-methoxycyclobutyl)benzenesulfonamide]

THRβ Emax (THR beta-LBD): B (75~90) | EC50 (THR beta-LBD): 2 to 20 nM | THRα Emax (THR alpha-LBD): A (85~110) | EC50 (THR alpha-LBD): 2 to 200 nM
SMILES: O=C(N1CCC1)C1(NS(=O)(=O)c2cc(Oc3c(Cl)cc(-n4nc(C(F)F)c(=O)[nH]c4=O)cc3Cl)ccc2O)CC1 [Compound 38, N-(1-(azetidine-1-carbonyl)cyclopropyl)-5-(2,6-dichloro-4-(6-(difluoromethyl)-3,5-dioxo-4,5-dihydro-1,2,4-triazin-2(3H)-yl)phenoxy)-2-hydroxybenzenesulfonamide]

THRβ Emax (THR beta-LBD): C (<75) | EC50 (THR beta-LBD): < 2 nM | THRα Emax (THR alpha-LBD): B (40~85) | EC50 (THR alpha-LBD): 2 to 200 nM
SMILES: CS(=O)(=O)[C@H]1CCN(S(=O)(=O)c2cc(Oc3c(Cl)cc(-n4nc(C(F)F)c(=O)[nH]c4=O)cc3Cl)ccc2O)C1 [Compound 39, (S)-2-(3,5-dichloro-4-(4-hydroxy-3-((3-(methylsulfonyl)pyrrolidin-1-yl)sulfonyl)phenoxy)phenyl)-6-(difluoromethyl)-1,2,4-triazine-3,5(2H,4H)-dione]

THRβ Emax (THR beta-LBD): B (75~90) | EC50 (THR beta-LBD): < 2 nM | THRα Emax (THR alpha-LBD): A (85~110) | EC50 (THR alpha-LBD): 2 to 200 nM
SMILES: O=c1[nH]c(=O)n(-c2cc(Cl)c(Oc3ccc(O)c(S(=O)(=O)N4CC(O)C4)c3)c(Cl)c2)nc1C(F)F [Compound 40, 2-[3,5-dichloro-4-[4-hydroxy-3-(3-hydroxyazetidin-1-yl)sulfonyl-phenoxy]phenyl]-6-(difluoromethyl)-1,2,4-triazine-3,5-dione]

THRβ Emax (THR beta-LBD): B (75~90) | EC50 (THR beta-LBD): < 2 nM | THRα Emax (THR alpha-LBD): A (85~110) | EC50 (THR alpha-LBD): 2 to 200 nM
SMILES: C[C@@H](CO)NS(=O)(=O)c1cc(Oc2c(Cl)cc(-n3nc(C(F)F)c(=O)[nH]c3=O)cc2Cl)ccc1O [Compound 41, (S)-5-(2,6-dichloro-4-(6-(difluoromethyl)-3,5-dioxo-4,5-dihydro-1,2,4-triazin-2(3H)-yl)phenoxy)-2-hydroxy-N-(1-hydroxypropan-2-yl)benzenesulfonamide]

THRβ Emax (THR beta-LBD): A (90~110) | EC50 (THR beta-LBD): 2 to 20 nM | THRα Emax (THR alpha-LBD): A (85~110) | EC50 (THR alpha-LBD): 2 to 200 nM
SMILES: O=c1[nH]c(=O)n(-c2cc(Cl)c(Oc3ccc(O)c(S(=O)(=O)NC[C@H]4C[C@H](O)C4)c3)c(Cl)c2)nc1C(F)F [Compound 43, 5-(2,6-dichloro-4-(6-(difluoromethyl)-3,5-dioxo-4,5-dihydro-1,2,4-triazin-2(3H)-yl)phenoxy)-2-hydroxy-N-(((1r,3r)-3-hydroxycyclobutyl)methyl)benzenesulfonamide]

THRβ Emax (THR beta-LBD): B (75~90) | EC50 (THR beta-LBD): < 2 nM | THRα Emax (THR alpha-LBD): A (85~110) | EC50 (THR alpha-LBD): 2 to 200 nM
SMILES: C[C@H](CO)NS(=O)(=O)c1cc(Oc2c(Cl)cc(-n3nc(C(F)F)c(=O)[nH]c3=O)cc2Cl)ccc1O [Compound 45, (R)-5-(2,6-dichloro-4-(6-(difluoromethyl)-3,5-dioxo-4,5-dihydro-1,2,4-triazin-2(3H)-yl)phenoxy)-2-hydroxy-N-(1-hydroxypropan-2-yl)benzenesulfonamide]

THRβ Emax (THR beta-LBD): B (75~90) | EC50 (THR beta-LBD): < 2 nM | THRα Emax (THR alpha-LBD): B (40~85) | EC50 (THR alpha-LBD): 2 to 200 nM
SMILES: CS(=O)(=O)N[C@H]1CCN(S(=O)(=O)c2cc(Oc3c(Cl)cc(-n4nc(C(F)F)c(=O)[nH]c4=O)cc3Cl)ccc2O)C1 [Compound 46, N-[(3S)-1-[5-[2,6-dichloro-4-[6-(difluoromethyl)-3,5-dioxo-1,2,4-triazin-2-yl]phenoxy]-2-hydroxy-phenyl]sulfonylpyrrolidin-3-yl]methanesulfonamide]
